Laboratory results: paper PMC6362118, “Pharmacophore-guided discovery of CDC25 inhibitors causing cell cycle arrest and tumor regression” (Scientific Reports, 2019)

Assays:
CDC25A = target: T1, CDC25A (Homo sapiens, UniProt P30304); assay: Enzymatic assay (OMFP substrate) on recombinant CDC25A; assay type: biochemical
T1 construct: GST (pGEX vector) (N); made in house; host or cells: E. coli BL21
T1 sequence (P30304 1-524): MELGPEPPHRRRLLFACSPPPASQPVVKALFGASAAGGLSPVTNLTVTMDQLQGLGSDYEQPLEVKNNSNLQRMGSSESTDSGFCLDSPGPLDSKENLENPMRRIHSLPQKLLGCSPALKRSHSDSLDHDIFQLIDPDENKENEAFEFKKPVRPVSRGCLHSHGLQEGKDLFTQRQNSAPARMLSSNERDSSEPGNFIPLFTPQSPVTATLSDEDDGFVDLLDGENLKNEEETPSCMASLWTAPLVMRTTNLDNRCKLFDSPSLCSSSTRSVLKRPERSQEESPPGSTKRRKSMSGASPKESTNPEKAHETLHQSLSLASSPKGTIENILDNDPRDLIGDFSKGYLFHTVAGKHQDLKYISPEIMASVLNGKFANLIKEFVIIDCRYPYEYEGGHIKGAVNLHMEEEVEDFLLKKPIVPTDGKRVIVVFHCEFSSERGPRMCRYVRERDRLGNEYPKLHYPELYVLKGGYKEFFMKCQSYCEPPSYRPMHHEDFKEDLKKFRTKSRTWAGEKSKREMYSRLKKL
Experimental: 57 UPD compounds were dissolved in DMSO at 10 mM stock concentration and stored in
60 Expression and purification of CDC25 phosphatases - CDC25A (kind gift of I.
61 Hoffmann, Heidelberg, Germany), CDC25B and CDC25C (kind gift of B. Gabrielli,
62 Queensland, Australia) in pGEX were expressed in E. coli BL21 cells and purified on 1
63 ml Glutathione Sepharose 4 Fast Flow columns as described 1.
(§1) 65 Enzymatic assays - CDC25A, CDC25B and CDC25C were appropriately diluted in 10
(§2) 66 mM Tris-HCl pH 8.0, 50 mM NaCl and assayed in 20 mM Tris-HCl pH 8.0, 75 mM
(§3) 67 NaCl, 0.5 mM EGTA, 1 mM DTT, 0.1 mg/ml BSA and defined concentrations of
(§4) 68 compounds. Reactions were started by addition of the substrate OMFP (0.1 mM). Assays
(§5) 69 were carried out at room temperature in duplicate or triplicate using transparent-bottom,
(§6) 70 V-shaped 96 well plates and read at defined intervals on a Molecular Devices
(§7) 71 SpectraMax microplate reader (ex: 490 nm / em: 525 nm). IC50 and kinetic parameters
(§8) 72 calculated from Lineweaver-Burk double-reciprocal plots of the data were obtained using
73 GraphPad Prism software. […]

[1] = parameters: method as in PMID 17970046; conditions: due to rapid metabolism; cited from earlier work
HeLa cells [2] = assay: Cell viability assay on HeLa cells; assay type: cell-based; conditions: 48h treatment
Experimental: (§9) 75 Cell culture - Wild-type HeLa and Kyoto HeLa cells stably expressing mCherry-H2B
(§10) 76 were maintained in DMEM+L-Glutamine (Gibco, Life Technologies, USA)
(§11) 77 supplemented with 5% fetal calf serum (FCS) (Gibco) and penicillin-streptomycin (100
78 U/ml - 100 µg/ml) (Gibco). […]
87 Cell viability assays - Compounds viability upon 48h treatment with the compounds was
88 assessed as described 4. Data were plotted with Prism 7® and analyzed by non-linear
89 regression. Comparison of single curve fitting to all data set within an experiment was
90 performed with the extra sum-of-squares F-test to determine P values. […]

HeLa cells [3] = assay: Time-lapse microscopy of mitosis in synchronized HeLa cells; assay type: cell-based
Experimental: Cells were grown in 35 mm CellView™ cell culture dishes with glass bottom (# 627870, Greiner-BioOne) at a density of 2.5 × 10^5 cells/ml in a humidified cell incubator maintained at 37 °C and 5% CO2. Cell were viewed by phase contrast microscopy with a 10x objective using an Olympus IX 81 motorized inverted microscope (Olympus, Hamburg, Germany) equipped with external temperature control chamber and CO2 bottle to maintain cells at 37 °C with 5% CO2. Transition through mitosis was documented by acquisition of four frames per hour over a period of 14 h using a CCD camera (Orca AG, Hamamatsu) and cellR® software (Olympus). HeLa-Kyoto cells (mCherry-H2B/EGFP-α-tubulin) were visualized by fluorescence microscopy with an Olympus IX 81 microscope using a 10x objective and selecting Ex. = 492 ± 18 nm/Em. = 535 ± 50 nm for the green channel and Ex. = 572 ± 23 nm/Em. = 645 ± 75 nm for the red channel.

HeLa cells [4] = assay: Flow cytometric analysis of cell cycle progression (DNA content) in HeLa cells; assay type: cell-based
Experimental: Reactions were started by addition of the substrate OMFP (0.1 mM). Assays 69 were carried out at room temperature in duplicate or triplicate using transparent-bottom, 70 V-shaped 96 well plates and read at defined intervals on a Molecular Devices 71 SpectraMax microplate reader (ex: 490 nm / em: 525 nm). IC50 and kinetic parameters 72 calculated from Lineweaver-Burk double-reciprocal plots of the data were obtained using 73 GraphPad Prism software. 74 75 Cell culture - Wild-type HeLa and Kyoto HeLa cells stably expressing mCherry-H2B 76 were maintained in DMEM+L-Glutamine (Gibco, Life Technologies, USA) 77 supplemented with 5% fetal calf serum (FCS) (Gibco) and penicillin-streptomycin (100 […] A549 and Colo741 were grown and maintained like HeLa 79 cells but with 10% FCS. HCT116 were maintained in McCoy's medium supplemented 80 with 10% FCS and penicillin-streptomycin. U2OS-Tet-OFF cells expressing HA-CDC25 81 were grown and maintained in DMEM+L-Glutamine, 10% Tet-free FCS and penicillin- 82 streptomycin in the presence or the absence of 4 μg/ml tetracycline (Sigma, T7660). 83 84 Cell synchronization - Cell synchronization was performed by double thymidine block- 85 release protocol 2 or nocodazole treatment 3 and verified by flow cytometry. 86 87 Cell viability assays - Compounds viability upon 48h treatment with the compounds was 88 assessed as described 4. Data were plotted with Prism 7® and analyzed by non-linear 89 regression. Comparison of single curve fitting to all data set within an experiment was 90 performed with the extra sum-of-squares F-test to determine P values. 91 92 Western blotting - Cell lysis and immunoblot analysis were performed as previously 93 described 5. […] Cells were washed with PBS, resuspended […] To 100 quantify phosphorylation of CDK1 at Tyr15 and H2AX at S139, cells were harvested and 101 examined as described 6. Samples were measured on an AttuneTM NxT Cytometer 102 (ThermoFisher Scientific, Carlsbad, CA, USA) and data were analyzed with FlowJo® 103 software v10 (FlowJo, LLC, Ashland, OR, USA). 104 105 Real Time qRT-PCR - Organoids were lysed in Tri-Reagent (Sigma) as previously 106 described 7 and total RNA was isolated as described by manufacturer's instructions. For […] 108 High Fidelity cDNA Synthesis kit (Roche). Real-time quantitative PCR reactions were 109 performed in three independent biological replicates, each with technical triplicate, using 110 the Applied Biosystems SYBR Green Kit and monitored by the ABI Prism 7900HT 111 system (Applied Biosystem). The following primers were used: 112 Lgr5: Forward [NT] and Reverse 5'- […] 114 Lysozyme: Forward [NT] and Reverse 5'- 115 [NT]3' 116 Cryptdin: Forward [NT] and Reverse 5'- 117 [NT]-binding protein (TBP): Forward [NT] and 119 Reverse [NT] 120 […] 122 amplification curves and the melting temperature analysis of the final amplification […] 4

[5] = test system: U2OS Tet-OFF cells expressing HA-CDC25A; assay: Cell viability of U2OS Tet-OFF cells overexpressing HA-CDC25A; assay type: cell-based; conditions: grown in the absence of tetracycline (HA-CDC25A induced)
Experimental: as §1, §2, §3, §4, §5, §6, §7, §8
73 GraphPad Prism software.
as §9, §10, §11
78 U/ml - 100 µg/ml) (Gibco). A549 and Colo741 were grown and maintained like HeLa
79 cells but with 10% FCS. HCT116 were maintained in McCoy’s medium supplemented
80 with 10% FCS and penicillin-streptomycin. U2OS-Tet-OFF cells expressing HA-CDC25
81 were grown and maintained in DMEM+L-Glutamine, 10% Tet-free FCS and penicillin- […]
88 assessed as described 4. Data were plotted with Prism 7® and analyzed by non-linear […]

| Compound | mode of action (reversibility) (CDC25A; pre-incubation at ~3x IC50 (5 μM UPDs, 2 µM NSC663284), 10-fold dilution) | antitumor activity in mice [1] | IC50 (HeLa cells [2]) [nM] | execution of mitosis (time-lapse) (HeLa cells [3]; HeLa, 10 μM added 5 h upon release from 2x thymidine block, monitored 14 h) | execution of mitosis at low dose (time-lapse) (HeLa cells [3]; synchronized HeLa Kyoto cells (mCherry-H2B, GFP-α-tubulin), 5 μM) | remaining activity at 20 µM (CDC25A; compound 20 µM, relative to DMSO control, read-out: % remaining activity ± SD (Table S2, second round of selection)) [%] | effect on cell cycle distribution (DNA content) (HeLa cells [4]; asynchronous HeLa cells, 10 μM, 15 h) | effect on the G2/M transition (HeLa cells [4]; double-thymidine synchronized HeLa, 10 μM added 5 h upon release, analysed 12 h post-release) | IC50 (HeLa cells [2]; Homo sapiens) [nM] | sensitivity of CDC25A overexpressing cells (viability) [5] |
| --- | --- | --- | --- | --- | --- | --- | --- | --- | --- | --- |
| O=C1C(Cl)=C(NCCN2CCOCC2)C(=O)c2ncccc21 [NSC-663284, reference compound] | irreversible | minimal antitumor activity | 2570 | – | – | – | – | – | – | – |
| Cc1c(O)ccc(C2=CC(=O)c3cccc(O)c3C2=O)c1O [UPD-787, 8-hydroxy-2-(2,4-dihydroxy-3-methylphenyl) naphthalene-1,4-dione] | – | – | – | could not complete mitotic transition and died before reaching G1 | failed attempt to round up and execute mitosis, which was followed by membrane blebbing and death | 0.1 ± 0.3 | accumulation of cells at G2/M | accretion of the G2/M peak | 900 | remained sensitive |
